pEC50, pIC50, pKd, pKi: −log10 of the molar value. Where a SMILES comes first, the peptide text is derived from it. [ ]: non-standard residue; d: D form. The star is where a group is joined. Nle = CCCC[C@H](N)C(=O)O; Bz = O=C(c1ccccc1)*
Key:
dengue virus type 2 [1] = experiment: Antiviral activity against Dengue virus 2 NGC infected in human K562 cells assessed as inhibition in live viral replication after 48 hrs by plaque assay; type: functional, organism-based; conditions: K562, 48 h
Junin virus = experiment: Antiviral activity against Junin virus IV4454 infected in african green monkey Vero cells assessed as inhibition of viral yield after 48 hrs; type: functional, organism-based; conditions: Mammarenavirus juninense
dengue virus type 3 [2] = experiment: Antiviral activity against Dengue virus 3 H87 infected in african green monkey Vero cells assessed as inhibition of viral yield after 48 hrs; type: functional, organism-based
dengue virus type 4 = experiment: Antiviral activity against Dengue virus 4 8124 infected in african green monkey Vero cells assessed as inhibition of viral yield after 48 hrs; type: functional, organism-based; conditions: Dengue virus, 8124, Vero
dengue virus type 2 [3] = experiment: Antiviral activity against Dengue virus 2 NGC infected in african green monkey Vero cells assessed as inhibition of viral yield after 48 hrs; type: functional, organism-based
dengue virus type 1 = experiment: Antiviral activity against Dengue virus 1 Hawaii infected in african green monkey Vero cells assessed as inhibition of viral yield after 48 hrs; type: functional, organism-based
dengue virus type 2 [4] = experiment: Antiviral activity against Dengue virus 2 infected in BHK21 cells assessed after 3 to 5 days by crystal violet staining based plaque assay; type: functional, organism-based; conditions: BHK-21
Genome polyprotein [5] = target: T1, Genome polyprotein (dengue virus type 2, UniProt P29990); experiment: Inhibition of Dengue virus 2 NS2B-NS3 protease using Abz-Nle-Lys-Arg-Arg-Ser-3-(NO2)Tyr as substrate preincubated for 15 mins followed by addition of substrate measured after 15 mins by fluorescence assay
Target sequence in this assay (P29990 1346-1475 limits assumed): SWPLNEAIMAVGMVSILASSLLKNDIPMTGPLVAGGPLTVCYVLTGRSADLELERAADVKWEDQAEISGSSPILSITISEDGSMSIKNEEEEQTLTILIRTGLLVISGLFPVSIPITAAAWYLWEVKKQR
Target sequence in this assay (P29990 1476-2093 limits assumed): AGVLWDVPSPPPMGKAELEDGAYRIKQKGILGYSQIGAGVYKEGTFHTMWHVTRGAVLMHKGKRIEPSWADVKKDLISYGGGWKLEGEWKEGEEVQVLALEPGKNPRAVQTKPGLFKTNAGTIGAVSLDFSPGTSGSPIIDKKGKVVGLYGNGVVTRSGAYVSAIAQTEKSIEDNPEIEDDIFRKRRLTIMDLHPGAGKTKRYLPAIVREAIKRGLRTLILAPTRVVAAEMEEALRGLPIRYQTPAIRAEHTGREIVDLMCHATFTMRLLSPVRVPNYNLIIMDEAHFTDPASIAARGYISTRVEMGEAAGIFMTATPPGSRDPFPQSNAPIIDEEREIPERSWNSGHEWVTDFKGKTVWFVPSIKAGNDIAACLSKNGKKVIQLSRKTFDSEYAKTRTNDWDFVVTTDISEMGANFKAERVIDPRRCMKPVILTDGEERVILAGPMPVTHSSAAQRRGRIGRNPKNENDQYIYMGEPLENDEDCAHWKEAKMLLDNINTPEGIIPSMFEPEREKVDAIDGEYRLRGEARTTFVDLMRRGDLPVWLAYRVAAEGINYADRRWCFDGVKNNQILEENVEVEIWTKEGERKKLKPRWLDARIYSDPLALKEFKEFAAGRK

[6] = Inhibition of Dengue virus guanine N-7 methyltransferase using RNA substrate after 20 mins in presence of [methyl-3H]-AdoMet by microbeta counting analysis
Nonstructural protein 5 = Nonstructural protein 5 (Dengue virus, UniProt V5TFZ2); experiment: Inhibition of Dengue virus ribose 2'-O methyltransferase using RNA substrate after 20 mins in presence of [methyl-3H]-AdoMet by microbeta counting analysis
dengue virus type 2 [7] = experiment: Antiviral activity against Dengue virus 2 NGC infected in human HuH7 cells assessed as reduction in viral titer after 24 hrs; type: functional; conditions: Huh-7, 24 h
dengue virus type 2 [8] = experiment: Antiviral activity against Dengue virus 2 NGC infected in BHK21 cells after 48 hrs by plaque reduction assay; type: functional, organism-based; conditions: BHK-21, 48 h
dengue virus type 2 [9] = experiment: Antiviral activity against Dengue virus 2 NGC infected through intraperitoneal route in AG129 mouse assessed as reduction in peak plasma viremia at 50 mg/kg, ip bid measured on day 3 by plaque assay relative to vehicle-treated control; type: functional
dengue virus type 2 [10] = experiment: Antiviral activity against Dengue virus 2 NGC infected through intraperitoneal route in AG129 mouse assessed as reduction of viral load in spleen at 50 mg/kg, ip bid measured on day 3 by plaque assay relative to vehicle-treated control; type: functional
dengue virus type 2 [11] = experiment: Antiviral activity against Dengue virus 2 NGC infected through intraperitoneal route in AG129 mouse assessed as reduction of viral load in liver at 50 mg/kg, ip bid measured on day 3 by plaque assay relative to vehicle-treated control; type: functional
dengue virus type 2 [12] = experiment: Antiviral activity against Dengue virus 2 NGC infected in african green monkey Vero cells assessed as reduction in viral titer after 48 hrs by plaque assay; type: functional, organism-based
[13] = Oral bioavailability in AG129 mouse plasma at 50 mg/kg/day after 1 to 24 hrs by LC-MS/MS; type: ADME, organism-based
dengue virus type 2 [14] = experiment: Antiviral activity against Dengue virus 2 NGC infected in human A549 cells assessed as reduction in virus replication after 48 hrs by renilla luciferase reporter gene assay; type: functional, organism-based; conditions: A549, 48 h
[15] = Cytotoxicity against human HuH7 cells assessed as cell viability after 48 hrs by CellTiter Glo assay; type: cell-based, Huh-7
dengue virus type 2 [16] = experiment: Antiviral activity against Dengue virus 2 NGC infected in human HuH7 cells assessed as reduction in virus replication after 48 hrs by renilla luciferase reporter gene assay; type: functional, organism-based; conditions: Huh-7, 48 h
[17] = Cytotoxicity against BHK21 cells after 1 hr by alamar blue assay; type: cell-based, Mesocricetus auratus, BHK-21; conditions: hamster
dengue virus type 2 [18] = experiment: Antiviral activity against Dengue virus 2 NGC infected in BHK21 cells after 24 hrs by plaque reduction assay; type: functional; conditions: BHK-21, 24 h
dengue virus type 2 [19] = experiment: Antiviral activity against Dengue virus 2 assessed as inhibition of viral replication; type: functional, organism-based
[20] = Binding affinity to His-tagged Dengue virus 3 methyltransferase expressed in Escherichia coli Rosetta 2(DE3) by VP-ITC isothermal titration calorimetry; design: species or system dengue virus type 3
dengue virus type 3 [21] = experiment: Potency index, ratio of S-adenosyl-L-methionine Kd to sinefungin Kd for His-tagged Dengue virus 3 methyltransferase expressed in Escherichia coli Rosetta 2(DE3)
Genome polyprotein [22] = target: T1, Genome polyprotein; experiment: Inhibition of RNA unwinding activity of thioredoxin/His6 tagged Dengue virus 2 TSV01 NS3 helicase (171 to 618 residues) expressed in Escherichia coli Rosetta (DE3) using Cy5-MBHA as substrate by fluorescence assay
Target sequence in this assay (P29990 1476-2093 limits assumed): as above

dengue virus type 2 [23] = experiment: Antiviral activity against Dengue virus 2 infected in BHK21 cells assessed as reduction in virus replication after 72 hrs by renilla luciferase reporter gene assay; type: functional, organism-based; conditions: BHK-21, 72 h
Genome polyprotein [24] = target: T1, Genome polyprotein; experiment: Inhibition of Dengue virus 2 NS3 helicase incubated for 2 mins followed by ATP addition
Target sequence in this assay (P29990 1476-2093 limits assumed): as above

Nonstructural protein 5, sequence (V5TFZ2 whole entry): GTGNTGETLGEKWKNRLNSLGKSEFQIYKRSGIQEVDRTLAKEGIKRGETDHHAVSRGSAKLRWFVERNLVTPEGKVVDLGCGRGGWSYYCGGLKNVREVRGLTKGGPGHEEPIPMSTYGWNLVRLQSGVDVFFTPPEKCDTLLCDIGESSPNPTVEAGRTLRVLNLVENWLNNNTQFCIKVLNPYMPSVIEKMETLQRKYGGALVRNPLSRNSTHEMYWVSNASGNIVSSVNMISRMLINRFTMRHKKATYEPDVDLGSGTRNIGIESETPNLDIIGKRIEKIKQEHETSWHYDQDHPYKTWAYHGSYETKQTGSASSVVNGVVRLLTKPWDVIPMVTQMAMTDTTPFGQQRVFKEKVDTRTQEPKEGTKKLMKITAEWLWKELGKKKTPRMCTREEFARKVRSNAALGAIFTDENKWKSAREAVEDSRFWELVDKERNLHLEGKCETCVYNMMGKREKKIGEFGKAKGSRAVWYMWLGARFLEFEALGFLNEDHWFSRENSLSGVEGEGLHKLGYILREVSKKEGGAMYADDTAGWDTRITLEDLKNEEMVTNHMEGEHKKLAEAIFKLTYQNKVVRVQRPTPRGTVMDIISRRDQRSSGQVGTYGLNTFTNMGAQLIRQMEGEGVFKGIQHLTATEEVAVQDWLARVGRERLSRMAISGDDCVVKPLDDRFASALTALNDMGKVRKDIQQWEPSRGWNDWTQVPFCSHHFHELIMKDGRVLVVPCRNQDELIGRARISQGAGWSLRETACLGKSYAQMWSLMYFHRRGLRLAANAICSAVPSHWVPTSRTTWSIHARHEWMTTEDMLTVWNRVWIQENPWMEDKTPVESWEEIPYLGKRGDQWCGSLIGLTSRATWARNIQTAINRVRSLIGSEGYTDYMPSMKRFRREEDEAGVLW

Structure (SMILES): CC(=C\C(=O)O)/C=C(\C)C[C@H](C)CCCC[C@H]1OC(=O)[C@@H]1CO [ANTIBIOTIC 1233A]
- pEC50 (dengue virus type 2 [1]): 5.35

Structure (SMILES): C=CCn1c2cc(Cl)ccc2c(=O)c2cccc(OC)c21
- pEC50 (Junin virus): 5.26 to 5.60
- pEC50 (dengue virus type 3 [2]): 4.80 to 5.08
- pEC50 (dengue virus type 4): 4.70
- pEC50 (dengue virus type 2 [3]): 5.26 to 5.60
- pEC50 (dengue virus type 1): 4.80 to 5.08

Structure (SMILES): CCN(CC)CCCC(C)Nc1ccnc2cc(Cl)ccc12 (centres undefined) [CHLOROQUINE]
- EC90 (dengue virus type 2 [4]): 5.04 µM

Structure (SMILES): CCCC[C@H](NC(=O)[C@H](CCCCN)NC(=O)[C@H](CCCNC(=N)N)NC(=O)c1ccccc1)C(N)=O (Bz-Arg-Lys-[Nle]-NH2)
- pKi (Genome polyprotein [5]): 4.81

Structure (SMILES): Nc1ncnc2c1ncn2[C@@H]1O[C@H](CSCC[C@H](N)C(=O)O)[C@@H](O)[C@H]1O [S-ADENOSYLHOMOCYSTEINE]
- pIC50 [6]: 5.75
- pIC50 (Nonstructural protein 5): 6.31

Structure (SMILES): CN1CCN(CCOc2cc(OC3CCOCC3)c3c(Nc4c(Cl)ccc5c4OCO5)ncnc3c2)CC1 [SARACATINIB]
- EC90 (dengue virus type 2 [7]): 12.2 µM

Structure (SMILES): CCCCCCCCCN1C[C@H](O)[C@@H](O)[C@H](O)[C@H]1CO
- pEC50 (dengue virus type 2 [8]): 6.00

Structure (SMILES): Nc1c(C(=O)Nc2nnc(-c3ccccc3)s2)sc2nc3c(cc12)CCCCC3
- fold change (FC) (dengue virus type 2 [9]): 52
- fold change (FC) (dengue virus type 2 [10]): 3
- fold change (FC) (dengue virus type 2 [11]): 20
- pEC50 (dengue virus type 2 [12]): 7.80
- EC90 (dengue virus type 2 [12]): 0.125 µM
- bioavailability [13]: 9.1%

Structure (SMILES): CCC(C)(C)C(=O)O[C@H]1C[C@@H](C)C=C2C=C[C@H](C)[C@H](CC[C@@H]3C[C@@H](O)CC(=O)O3)[C@H]21 [SIMVASTATIN]
- pEC50 (dengue virus type 2 [14]): 5.06 to 5.74

Structure (SMILES): CCN(CC)CCO[C@H]1CC[C@@]2(C)C(=CC[C@@H]3[C@@H]2CC[C@]2(C)C(=O)CC[C@@H]32)C1
- CC50 at 48 h [15]: 34.4 µM
- pEC50 (dengue virus type 2 [16]): 5.54

Structure (SMILES): N#C/C(=N\Nc1ccc(C(F)(F)F)cc1)C(=O)c1ccco1
- CC50 at 1 h [17]: 84.5 µM
- IC90 (dengue virus type 2 [18]): 1.5 µM

Structure (SMILES): Cc1nc(Nc2ncc(C(=O)Nc3c(C)cccc3Cl)s2)cc(N2CCN(CCO)CC2)n1 [DASATINIB]
- EC90 (dengue virus type 2 [7]): 4.7 µM

Structure (SMILES): CC(C)(C)OC(=O)NC1C(=O)NC2Cc3ccc(c(Cl)c3)Oc3cc4cc(c3O)Oc3ccc(cc3Cl)C(O)C3NC(=O)C(NC(=O)C4NC(=O)C(NC2=O)c2cc(O)cc(c2)Oc2cc1ccc2O)c1ccc(O)c(c1)-c1c(O)cc(O)cc1C(C(=O)NC12CC4CC(CC(C4)C1)C2)NC3=O (centres undefined)
- pEC50 (dengue virus type 2 [19]): 5.16

Structure (SMILES): CCCC[C@H](NC(=O)[C@H](CCCCN)NC(=O)[C@H](CCCNC(=N)N)NC(=O)c1ccc(/C=C(\C#N)C(=O)NC2CC2)cc1)C(N)=O
- pKi (Genome polyprotein [5]): 5.31

Structure (SMILES): Nc1ncnc2c1ncn2[C@@H]1O[C@H](C[C@@H](N)CC[C@H](N)C(=O)O)[C@@H](O)[C@H]1O [SINEFUNGIN]
- pKd [20]: 6.87
- pIC50 [6]: 7.52
- Ratio (dengue virus type 3 [21]): 6
- pIC50 (Nonstructural protein 5): 7.39

Structure (SMILES): CC[C@H](C)C(=O)O[C@H]1CCC=C2C=C[C@H](C)[C@H](CC[C@@H]3C[C@@H](O)CC(=O)O3)[C@H]21 [MEVASTATIN]
- pEC50 (dengue virus type 2 [14]): 5.06 to 5.74

Structure (SMILES): Cc1ccc2nc(-c3ccc4nc(-c5ccc(NC(=O)c6ccc7nc(-c8ccc(N)cc8)sc7c6)cc5)sc4c3)sc2c1S(=O)(=O)O
- pIC50 (Genome polyprotein [22]): 5.82
- pEC50 (dengue virus type 2 [23]): 5.15
- pIC50 (Genome polyprotein [24]): 6.30
